Tested on: E. coli K5, bacterial growth
Assay: K5 capsule formation inhibitors tested for E. coli K5 growth effect in follow-up (AID 624061)
Conditions: stronger effect = lower value

CCOc1ccc(-c2cc(NC(=O)c3c(F)cccc3F)c(C(=O)O)s2)cc1
bacterial growth (at 100 µM): 109% | bacterial growth (growth, at 50 µM): 106%

Reference: PubChem BioAssay AID624061 (Southern Research Specialized Biocontainment Screening …, 2012)
